From the NIST ThermoML archive (doi:10.1016/j.jct.2013.01.008)

Assay: mn = molality of the nth substance listed, in mol/kg
Settings: 101 kPa, Liquid; for mass density: Pycnometric method; for viscosity: Capillary tube (Ostwald / Ubbelohde) method

C[C@@H](O)[C@H](N)C(=O)O [L-threonine] + O
Settings | mass density [kg/m3] | viscosity [mPa·s]
293.15 K, m1 = 0.025 | 999.31 | –
293.15 K, m1 = 0.05 | 1000.36 | –
293.15 K, m1 = 0.075 | 1001.39 | –
293.15 K, m1 = 0.0999 | 1002.41 | –
293.15 K, m1 = 0.1249 | 1003.41 | –
293.15 K, m1 = 0.15 | 1004.39 | –
293.15 K, m1 = 0.175 | 1005.36 | –
293.15 K, m1 = 0.2 | 1006.31 | –
298.15 K, m1 = 0.025 | 998.14 | 0.8981
298.15 K, m1 = 0.05 | 999.18 | 0.9057
298.15 K, m1 = 0.075 | 1000.22 | 0.9134
298.15 K, m1 = 0.0999 | 1001.23 | 0.9211
298.15 K, m1 = 0.1249 | 1002.23 | 0.9286
298.15 K, m1 = 0.15 | 1003.21 | 0.936
298.15 K, m1 = 0.175 | 1004.18 | 0.9434
298.15 K, m1 = 0.2 | 1005.12 | 0.9511
303.15 K, m1 = 0.025 | 996.75 | 0.8051
303.15 K, m1 = 0.05 | 997.8 | 0.8128
303.15 K, m1 = 0.075 | 998.83 | 0.8205
303.15 K, m1 = 0.0999 | 999.84 | 0.828
303.15 K, m1 = 0.1249 | 1000.83 | 0.8358
303.15 K, m1 = 0.15 | 1001.83 | 0.8434
303.15 K, m1 = 0.175 | 1002.79 | 0.851
303.15 K, m1 = 0.2 | 1003.74 | 0.8584
308.15 K, m1 = 0.025 | 995.14 | 0.7266
308.15 K, m1 = 0.05 | 996.19 | 0.7344
308.15 K, m1 = 0.075 | 997.23 | 0.7421
308.15 K, m1 = 0.0999 | 998.24 | 0.7496
308.15 K, m1 = 0.1249 | 999.24 | 0.7571
308.15 K, m1 = 0.15 | 1000.23 | 0.7645
308.15 K, m1 = 0.175 | 1001.2 | 0.7719
308.15 K, m1 = 0.2 | 1002.15 | 0.7792
313.15 K, m1 = 0.025 | 993.32 | 0.66
313.15 K, m1 = 0.05 | 994.38 | 0.6678
313.15 K, m1 = 0.075 | 995.42 | 0.6754
313.15 K, m1 = 0.0999 | 996.44 | 0.6828
313.15 K, m1 = 0.1249 | 997.44 | 0.6901
313.15 K, m1 = 0.15 | 998.43 | 0.6974
313.15 K, m1 = 0.175 | 999.4 | 0.7047
313.15 K, m1 = 0.2 | 1000.35 | 0.7119
318.15 K, m1 = 0.025 | 991.32 | 0.6044
318.15 K, m1 = 0.05 | 992.38 | 0.6121
318.15 K, m1 = 0.075 | 993.42 | 0.6196
318.15 K, m1 = 0.0999 | 994.45 | 0.6269
318.15 K, m1 = 0.1249 | 995.46 | 0.6341
318.15 K, m1 = 0.15 | 996.45 | 0.6413
318.15 K, m1 = 0.175 | 997.43 | 0.6485
318.15 K, m1 = 0.2 | 998.39 | 0.6556
